Patent publication US20240293413A1, “COMPOUND AND METHOD FOR TREATING CHEMOTHERAPY-RELATED GASTROINTESTINAL SIDE EFFECTS” (ONQUALITY PHARMACEUTICALS CHINA LTD., priority 2021, published 2024)

Legend:
Type in all cases: in vivo
[1] = system: Chemotherapeutic agent-caused diarrhea models of Balb/c mice; experiment: Examples 1-229 (Table 3): oral CDK inhibitor, relief of diarrhea caused by a chemotherapeutic agent;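 note: percent of treated mice whose diarrhea grade fell below chemotherapy-group average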
From the text: Construction of mouse animal models: Chemotherapeutic agent-caused diarrhea models of Balb/c mice were constructed according to the administration mode and frequency of the chemotherapeutic agent as shown in Table 3.
Balb/c mice were fed for 1 week, and then divided into groups. The experiment was divided into a control group, a chemotherapeutic agent group, and a CDK inhibitor group, each of which comprised 10 mice, to perform the administration experiment, for which the administration dosage, mode, time and frequency were shown in Table 3. The control group: being intragastrically administered with the same solvent as that used in the CDK inhibitor group (the time was shown in Table 3), and then being injected/intragastrically administered with the same solvent as that used in the chemotherapeutic agent group (the administration mode was shown in Table 3): the chemotherapeutic agent group: being intragastrically administered with the same solvent as that used in the CDK inhibitor group (the time was shown in Table 3), and then being injected/intragastrically administered with the chemotherapeutic agent (the type, administration mode and dosage were shown in Table 3); the CDK inhibitor group: being intragastrically administered with the CDK inhibitor (the time was shown in Table 3), and then being administered with the chemotherapeutic agent (the mode and dosage were shown in Table 3).
The diarrhea grading of mice was observed and recorded every day.

[2] = system: constipation caused by a chemotherapeutic agent in Balb/c mice; experiment: Examples 406-443 (Table 8): various administration modes of the CDK inhibitor, relief of constipation caused by a chemotherapeutic agent; settings: for Relative remission rate of other administration mode / Relative remission rate of oral administration: cycle 8 days; for improvement of constipation by oral administration, intraperitoneal injection, intramuscular injection, local administration: constipation caused by doxorubicin, etoposide, etoposide plus cisplatin, carboplatin, gemcitabine, gemcitabine plus carboplatin, under certain conditions, oral most significant;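 for Relative remission rate of oral administration: percent of treated mice relieved versus chemotherapy group by feces reduction rate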;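 for Relative remission rate of other administration mode: percent of treated mice relieved versus chemotherapy group by feces reduction rate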
From the text: Balb/c mice were fed for 1 week, and then divided into groups. The experiment was divided into a control group, a chemotherapeutic agent group, CDK inhibitor groups (including an oral administration group of a CDK inhibitor, an intravenous injection group of a CDK inhibitor, an intraperitoneal injection group of a CDK inhibitor, an intramuscular injection group of a CDK inhibitor, a local administration group of a CDK inhibitor), each of which comprised 10 mice, to perform the administration experiment, for which the administration dosage, mode, time and frequency were shown in Table 8. The control group: being administered with the same solvent as that used in the CDK inhibitor group (the time and mode were shown in Table 8), and then being injected/intragastrically administered with the same solvent as that used in the chemotherapeutic agent group (the administration mode was shown in Table 8): the chemotherapeutic agent group: being administered with the same solvent as that used in the CDK inhibitor group (the time and mode were shown in Table 8), and then being injected/intragastrically administered with the chemotherapeutic agent (the type, administration mode and dosage were shown in Table 8): the oral administration group of the CDK inhibitor: being intragastrically administered with the CDK inhibitor (the time was shown in Table 8), and then being administered with the chemotherapeutic agent (the mode and dosage were shown in Table 8): the intravenous injection group of the CDK inhibitor: being injected with the CDK inhibitor through tail vein (the time was shown in Table 8), and then being administered with the chemotherapeutic agent (the mode and dosage were shown in Table 8): the intraperitoneal injection group of the CDK inhibitor: being intraperitoneally injected with the CDK inhibitor (the time was shown in Table 8), and then being administered with the chemotherapeutic agent (the mode and dosage were shown in Table 8): the intramuscular injection group of the CDK inhibitor: being intramuscularly injected with the CDK inhibitor (the time was shown in Table 8), and then being administered with the chemotherapeutic agent (the mode and dosage were shown in Table 8); and the local administration group of the CDK inhibitor: the hair on the abdomen of mice was shaved (about 2 cm*2 cm), being applied with the CDK inhibitor (the time was shown in Table 8), and then being administered with the chemotherapeutic agent (the mode and dosage were shown in Table 8).
(§1) Feces reduction rate (%)=(the control group−the chemotherapeutic agent group or the CDK inhibitor group)/the control group*100%
(§2) The feces amount of mice within 3 hours was observed and recorded every day.

[3] = system: Chemotherapeutic agent-caused constipation models of Balb/c mice; experiment: Examples 272-342 (Table 5): oral CDK inhibitor, relief of constipation caused by a chemotherapeutic agent; settings: cycle 8 days;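 note: percent of treated mice relieved versus chemotherapy group by feces reduction rate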
From the text: Construction of mouse animal models: Chemotherapeutic agent-caused constipation models of Balb/c mice were constructed according to the administration mode and frequency of the chemotherapeutic agent as shown in Table 5.
Balb/c mice were fed for 1 week, and then divided into groups. The experiment was divided into a control group, a chemotherapeutic agent group, and a CDK inhibitor group, each of which comprised 10 mice, to perform the administration experiment, for which the administration dosage, mode, time and frequency were shown in Table 5. The control group: being intragastrically administered with the same solvent as that used in the CDK inhibitor group (the time was shown in Table 5), and then being injected/intragastrically administered with the same solvent as that used in the chemotherapeutic agent group (the administration mode was shown in Table 5): the chemotherapeutic agent group: being intragastrically administered with the same solvent as that used in the CDK inhibitor group (the time was shown in […]), and then being injected/intragastrically administered with the chemotherapeutic agent (the type, administration mode and dosage were shown in Table 5): the CDK inhibitor group: being intragastrically administered with the CDK inhibitor (the time was shown in Table 5), and then being administered with the chemotherapeutic agent (the mode and dosage were shown in Table 5).
as §1, §2

| Compound | Relative remission rate (%) ([1]; Example 46, Fluorouracil (5-Fu) intravenous injection 175 mg/kg single, CDK inhibitor oral 250 mg/kg single 2 h before, cycle 10 days) | Relative remission rate (%) ([1]; Example 118, Irinotecan (CPT-11) intraperitoneal injection 240 mg/kg single, CDK inhibitor oral 250 mg/kg single 6 h before, cycle 7 days) | Relative remission rate (%) ([1]; Example 195, Gemcitabine 60 mg/kg and paclitaxel 10 mg/kg intravenous injection single, CDK inhibitor oral 400 mg/kg single, 0.5 h before, 8 days) | Relative remission rate (%) ([1]; Example 199, Gemcitabine 60 mg/kg and paclitaxel 10 mg/kg intravenous injection single, CDK inhibitor oral 250 mg/kg single, 2 h before, 8 days) | Relative remission rate (%) ([1]; Example 200, Gemcitabine 60 mg/kg and paclitaxel 10 mg/kg intraperitoneal injection single, CDK inhibitor oral 250 mg/kg single, 6 h before, 8 days) | Relative remission rate of other administration mode ([2]; Example 442, Gemcitabine and Carboplatin oral administration 300 (G) 200 (C) mg/kg single, CDK inhibitor local administration 400 mg/kg single, 4 h before) | Relative remission rate of oral administration ([2]; Example 442, Gemcitabine and Carboplatin oral administration 300 (G) 200 (C) mg/kg single, CDK inhibitor oral 400 mg/kg single, 4 h before) | Relative remission rate of other administration mode ([2]; Example 443, Gemcitabine and Carboplatin oral administration 300 (G) 200 (C) mg/kg single, CDK inhibitor local administration 400 mg/kg single, 8 h before) | Relative remission rate of oral administration ([2]; Example 443, Gemcitabine and Carboplatin oral administration 300 (G) 200 (C) mg/kg single, CDK inhibitor oral 400 mg/kg single, 8 h before) | improvement of constipation by oral administration, intraperitoneal injection, intramuscular injection, local administration [2] | Relative remission rate ([3]; Example 321, Docetaxel (DTX) oral administration 30 mg/kg single, CDK inhibitor oral 400 mg/kg single, 3 h before) | Relative remission rate (%) ([1]; Example 73, Oxaliplatin intraperitoneal injection 20 mg/kg single, CDK inhibitor oral 10 mg/kg single 6 h before, cycle 8 days) | Relative remission rate (%) ([1]; Example 117, Irinotecan (CPT-11) intraperitoneal injection 240 mg/kg single, CDK inhibitor oral 10 mg/kg single 6 h before, cycle 7 days) | Relative remission rate of other administration mode ([2]; Example 420, Etoposide (Etop1) intravenous injection 100 mg/kg single, CDK inhibitor intraperitoneal injection 100 mg/kg single, 1 h before) | Relative remission rate of oral administration ([2]; Example 420, Etoposide (Etop1) intravenous injection 100 mg/kg single, CDK inhibitor oral 1 mg/kg single, 1 h before) | Relative remission rate ([3]; Example 322, Docetaxel (DTX) intramuscular injection 20 mg/kg single, CDK inhibitor oral 1 mg/kg single, 5 h before) |
| --- | --- | --- | --- | --- | --- | --- | --- | --- | --- | --- | --- | --- | --- | --- | --- | --- |
| CC[C@H](CO)Nc1nc(NCc2ccccc2)c2ncn(C(C)C)c2n1 [Seliciclib] | 30% | 30% | 30% | 20% | 40% | 10% | 20% | 10% | 20% | can significantly improve constipation | 20% |  |  |  |  |  |
| Roniciclib |  |  |  |  |  |  |  |  |  | can significantly improve constipation |  | 30% | 20% | 10% | 20% | 10% |
